Drawing on PubChem BioAssay (NCI), this text covers GI50 and TGI for 26 molecules.

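Assay format: 96-well plates, 48-hour exposure. At the GI50, growth is halved. TGI is the concentration that stops growth completely.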

The test system of the first experiment is CCRF-CEM leukemia. In words: DTP human tumour cell line panel, 48 h.
Take `Nc1ccc(-c2nn3c(COc4ccc(Cl)cc4)nnc3s2)cc1`: the GI50 was 10 µM and the total growth inhibition concentration (TGI) is more than 100 µM.

`COP(=O)(OC)C(Nc1ccc(Cc2ccc(NC(c3ccco3)P(=O)(OC)OC)cc2)cc1)c1ccco1` (stereo not given) came in with a TGI of more than 100 µM.

The molecule `C(=C\c1ccccc1)/COc1ccccc1C(N1CCOCC1)n1nc2ccccc2n1` (stereo not given) gave a TGI of 6.14 µM. This lies in the single-digit micromolar range.

Take `O=C(CC(=O)Nc1ccccc1)NNC(c1cc(N=Nc2ccc(Br)cc2)ccc1O)P(O)O` (stereo not given): the TGI came to 8.25 µM.

For the molecule `c1ccc([P+](CCCCCCCC[P+](c2ccccc2)(c2ccccc2)c2ccccc2)(c2ccccc2)c2ccccc2)cc1`, the TGI is more than 100 µM.

In the case of `c1ccc2[nH]c(CNc3ccc(C4C[Se]N=N4)cc3)nc2c1` (stereo not given), the total growth inhibition concentration (TGI) stood at 82.5 µM. This counts as double-digit micromolar.

Molecule `O=C1C(C(O)(C(F)(F)F)C(F)(F)F)CCC1C(O)(C(F)(F)F)C(F)(F)F` (stereo not given) returned a TGI of more than 100 µM.

For the molecule `Cc1ccc2oc(=O)c(-c3ccccc3)nc2c1`, the TGI was more than 100 µM.

Turning to `COc1ccc(-n2nc(C)c3c(Nc4ccc(NC(=O)Nc5ccc(Cl)c(C(F)(F)F)c5)cc4)ncnc32)cc1`, the GI50 was 2.2 µM and the total growth inhibition concentration (TGI) was more than 100 µM.

Consider `COc1ccc(NC(C)c2ccncc2)cc1` (stereo not given), for which the TGI was more than 100 µM.

Molecule `Nc1ccccc1C(=O)C(Br)C(Br)c1ccc2c(c1)OCO2` (stereo not given) yielded a concentration for total growth inhibition (TGI) of more than 100 µM.

In a further experiment the test system is A549 NSCLC. Put plainly: DTP human tumour cell line panel, 48 h.
The molecule `COc1cc2[nH]c(-c3ccccc3)cc(=O)c2c(OC)c1OC` returned a TGI of more than 100 µM.

Consider `CCOP(=O)(OCC)OC1CC(n2cc(C)c(=O)n(C)c2=O)OC1CO[Si](C)(C)C(C)(C)C` (stereo not given), for which the TGI is more than 100 µM.

As for `N#C/C(=C1\SC(N=Nc2ccc(Cl)cc2)C(=O)N1c1ccccc1)c1nc2ccccc2[nH]1` (stereo not given), the TGI turned out to be 87.3 µM.

Consider `CCOC(=O)c1c(SCCN2CCOCC2)n(-c2ccccc2)c(=S)n(-c2ccccc2)c1=O`, for which the TGI is more than 100 µM.

In the case of `O=C(NN1C(=O)CSC1c1cccc(F)c1)c1ccncc1` (stereo not given), the TGI is more than 100 µM.

On to `COc1ccc(N2C(=O)C3c4[nH]c5ccccc5c4C4CCCCCCCCCC4C3C2=O)cc1` (stereo not given), for which the concentration for total growth inhibition (TGI) was more than 10 µM.

Molecule `COc1cc(C(O)c2ccc3c(c2)OCO3)cc(OC)c1OC` (stereo not given) had a TGI of more than 100 µM.

`Cc1cc(C)nc(NS(=O)(=O)c2ccc(NC(=O)c3cccc4c(NNc5ccc(S(=O)(=O)N=C(N)N)cc5)c5ccccc5nc34)cc2)n1` gave a total growth inhibition concentration (TGI) of more than 50 µM.

As for `CCOC(=O)c1sc2ncnc(N)c2c1C`, the TGI is more than 100 µM.

Consider `C=CCN1C(=O)/C(=C/c2ccc(C)cc2)N=C1SC1OC(COC(C)=O)C(OC(C)=O)C(OC(C)=O)C1OC(C)=O` (stereo not given), for which the TGI is more than 100 µM.

The molecule `N#Cc1c(-c2ccccc2)c2c([nH]c1=O)-c1cc([N+](=O)[O-])ccc1CCC2` displayed a TGI of more than 100 µM.

Molecule `O=[N+]([O-])c1cc(Cl)ccc1Sc1ccccc1` returned a TGI of more than 100 µM.

`Nc1ccc(-c2nn3c(COc4ccc(Cl)cc4)nnc3s2)cc1`: the total growth inhibition concentration (TGI) was more than 100 µM.

For the molecule `COP(=O)(OC)C(Nc1ccc(Cc2ccc(NC(c3ccco3)P(=O)(OC)OC)cc2)cc1)c1ccco1` (stereo not given), the TGI is more than 100 µM.

As to `C(=C\c1ccccc1)/COc1ccccc1C(N1CCOCC1)n1nc2ccccc2n1` (stereo not given), the total growth inhibition concentration (TGI) was more than 89.2 µM.

For the molecule `O=C(CC(=O)Nc1ccccc1)NNC(c1cc(N=Nc2ccc(Br)cc2)ccc1O)P(O)O` (stereo not given), the concentration for total growth inhibition (TGI) was more than 10 µM.

The molecule `c1ccc([P+](CCCCCCCC[P+](c2ccccc2)(c2ccccc2)c2ccccc2)(c2ccccc2)c2ccccc2)cc1` showed a TGI of more than 100 µM.

Take `c1ccc2[nH]c(CNc3ccc(C4C[Se]N=N4)cc3)nc2c1` (stereo not given): the total growth inhibition concentration (TGI) was more than 100 µM.

As to `O=C1C(C(O)(C(F)(F)F)C(F)(F)F)CCC1C(O)(C(F)(F)F)C(F)(F)F` (stereo not given), the TGI is more than 65.4 µM.

In turn, `C[C@H]1OC(=O)[C@@H]2N=NN(Cc3ccccc3)[C@H]12` came in with a total growth inhibition concentration (TGI) of more than 100 µM.

Regarding `Cc1ccc2oc(=O)c(-c3ccccc3)nc2c1`, the TGI is more than 100 µM.

Regarding `COc1ccc(-n2nc(C)c3c(Nc4ccc(NC(=O)Nc5ccc(Cl)c(C(F)(F)F)c5)cc4)ncnc32)cc1`, the GI50 was 1.88 µM and the TGI came out at 6.31 µM.

For `COc1ccc(NC(C)c2ccncc2)cc1` (stereo not given), the TGI was more than 100 µM.

For the molecule `Nc1ccccc1C(=O)C(Br)C(Br)c1ccc2c(c1)OCO2` (stereo not given), the TGI was 57.3 µM.

`O=C1C=CC(=O)C(CNc2ccc(C(=O)OCc3ccccc3)cc2)=C1`: the total growth inhibition concentration (TGI) came out at 32.1 µM.

`C/C(=C\CO)CC/C=C(\C)CNc1ccc([N+](=O)[O-])cc1` had a total growth inhibition concentration (TGI) of more than 100 µM.

The subject of the next experiment is OVCAR-5 ovarian. Put plainly: DTP human tumour cell line panel, 48 h.
`COc1cc2[nH]c(-c3ccccc3)cc(=O)c2c(OC)c1OC` registered a total growth inhibition concentration (TGI) of more than 100 µM.

`CCOP(=O)(OCC)OC1CC(n2cc(C)c(=O)n(C)c2=O)OC1CO[Si](C)(C)C(C)(C)C` (stereo not given): the TGI was more than 100 µM.

`N#C/C(=C1\SC(N=Nc2ccc(Cl)cc2)C(=O)N1c1ccccc1)c1nc2ccccc2[nH]1` (stereo not given) had a concentration for total growth inhibition (TGI) of more than 100 µM.

As to `CCOC(=O)c1c(SCCN2CCOCC2)n(-c2ccccc2)c(=S)n(-c2ccccc2)c1=O`, the TGI was more than 100 µM.

In turn, `O=C(NN1C(=O)CSC1c1cccc(F)c1)c1ccncc1` (stereo not given) displayed a concentration for total growth inhibition (TGI) of more than 100 µM.

As for `COc1ccc(N2C(=O)C3c4[nH]c5ccccc5c4C4CCCCCCCCCC4C3C2=O)cc1` (stereo not given), the TGI is more than 10 µM.

The molecule `COc1cc(C(O)c2ccc3c(c2)OCO3)cc(OC)c1OC` (stereo not given) had a TGI of more than 100 µM.

As for `CCOC(=O)c1sc2ncnc(N)c2c1C`, the TGI is more than 100 µM.

In the case of `C=CCN1C(=O)/C(=C/c2ccc(C)cc2)N=C1SC1OC(COC(C)=O)C(OC(C)=O)C(OC(C)=O)C1OC(C)=O` (stereo not given), the TGI is more than 100 µM.

`N#Cc1c(-c2ccccc2)c2c([nH]c1=O)-c1cc([N+](=O)[O-])ccc1CCC2` displayed a concentration for total growth inhibition (TGI) of more than 100 µM.

`O=[N+]([O-])c1cc(Cl)ccc1Sc1ccccc1` came in with a concentration for total growth inhibition (TGI) of more than 100 µM.

`Nc1ccc(-c2nn3c(COc4ccc(Cl)cc4)nnc3s2)cc1` registered a total growth inhibition concentration (TGI) of more than 100 µM.

On to `COP(=O)(OC)C(Nc1ccc(Cc2ccc(NC(c3ccco3)P(=O)(OC)OC)cc2)cc1)c1ccco1` (stereo not given), for which the TGI was more than 100 µM.

On to `C(=C\c1ccccc1)/COc1ccccc1C(N1CCOCC1)n1nc2ccccc2n1` (stereo not given), for which the TGI is 44.9 µM.

`O=C(CC(=O)Nc1ccccc1)NNC(c1cc(N=Nc2ccc(Br)cc2)ccc1O)P(O)O` (stereo not given) returned a TGI of more than 10 µM.

In turn, `c1ccc([P+](CCCCCCCC[P+](c2ccccc2)(c2ccccc2)c2ccccc2)(c2ccccc2)c2ccccc2)cc1` yielded a TGI of more than 91.1 µM.

As for `c1ccc2[nH]c(CNc3ccc(C4C[Se]N=N4)cc3)nc2c1` (stereo not given), the TGI is more than 100 µM.

For `O=C1C(C(O)(C(F)(F)F)C(F)(F)F)CCC1C(O)(C(F)(F)F)C(F)(F)F` (stereo not given), the TGI was more than 100 µM.

Consider `C[C@H]1OC(=O)[C@@H]2N=NN(Cc3ccccc3)[C@H]12`, for which the total growth inhibition concentration (TGI) is more than 100 µM.

Regarding `Cc1ccc2oc(=O)c(-c3ccccc3)nc2c1`, the TGI was found to be 99.8 µM.

For `COc1ccc(-n2nc(C)c3c(Nc4ccc(NC(=O)Nc5ccc(Cl)c(C(F)(F)F)c5)cc4)ncnc32)cc1`, the GI50 was 1.83 µM and the TGI amounted to 4.71 µM.

For `COc1ccc(NC(C)c2ccncc2)cc1` (stereo not given), the TGI was more than 100 µM.

`O=C1C=CC(=O)C(CNc2ccc(C(=O)OCc3ccccc3)cc2)=C1` came in with a concentration for total growth inhibition (TGI) of 29.5 µM.

`C/C(=C\CO)CC/C=C(\C)CNc1ccc([N+](=O)[O-])cc1` had a concentration for total growth inhibition (TGI) of more than 100 µM.

For orientation: GI50 means the concentration giving 50% growth inhibition. As usually defined, the TGI is the concentration giving total growth inhibition.
